Data on six compounds can be found in US20140303082A1, “SELECTIVE GPCR LIGANDS” (Medical Research Council, priority 2011, published 2014).

Changes are numbered by the printed parent chain. Where a SMILES comes first, the peptide text is derived from it. Where no end group is shown, it is not given here.

Series [1] deals with T1, AT1aR (Rattus norvegicus, UniProt P25095).
T1 construct: expressed in transfected cells; host or cells: HEK293T, transient, crude membranes
T1 sequence (P25095 1-359): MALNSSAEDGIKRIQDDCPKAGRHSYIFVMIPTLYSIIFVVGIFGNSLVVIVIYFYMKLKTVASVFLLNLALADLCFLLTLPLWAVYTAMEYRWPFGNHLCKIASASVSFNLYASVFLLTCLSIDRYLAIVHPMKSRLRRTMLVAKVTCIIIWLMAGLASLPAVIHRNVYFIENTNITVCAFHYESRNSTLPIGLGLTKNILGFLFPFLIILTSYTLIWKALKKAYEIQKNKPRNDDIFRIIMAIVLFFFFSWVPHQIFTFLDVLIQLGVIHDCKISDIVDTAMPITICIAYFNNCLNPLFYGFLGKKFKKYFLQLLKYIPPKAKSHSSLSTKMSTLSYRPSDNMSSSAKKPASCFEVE
As to the kind of experiment: Radioligand binding assays (saturation and competition), HEK293T membranes. To be noted: for Ki: competition vs 2 nM [125I]-AII, 2 hours on ice, Cheng and Prusoff, receptor printed AT1R. As for the experimental part: (§1) Cell culture and transient transfection. HEK293T cells were maintained at 37° C. in Dulbecco's modified Eagle's medium (DMEM) supplemented with 10% (v/v) fetal bovine serum (FBS), 2 mM glutamine, 100 U/ml penicillin, and 100 μg/ml streptomycin. Cells were seeded into 10 cm dish and 24 hours later were transfected with either AT1aR (pcDNA3.1) or AT2R (pcDNAI/Amp) using GeneJuice transfection reagent according to the manufacturer's instructions. Cells were harvested 48 hours after transfection. A pellet of transfected HEK293T cells (2×10^6 cells) was resuspended in ice-cold 0.5 ml binding buffer (50 mM Tris-HCl pH 7.4, 100 mM NaCl, 10 mM MgCl2, 1 mM EDTA, 0.2% BSA and 0.025% Bacitracin) containing protease inhibitors (Complete™, Roche). The cells were transferred to a 1.5 ml microcentrifuge tube and subjected to two cycles of freeze-thawing. The lysed cells were sheared by passaging seven times through a 26-gauge needle and the crude membranes were pelleted by ultracentrifugation (60 min, 120,000×g, 4° C.). The crude membranes were then resuspended in a final volume of 0.2 ml ice-cold binding buffer containing protease inhibitors corresponding to a protein concentration 3.3 μg/μl as determined by the amido black protein assay^45.
(§2) Radioligand binding assays. […] Non-specific binding was determined in presence of 6 μM cold AII. […] Samples were incubated for 2 hours at 4° C. Receptor-bound and free radioligand were separated by filtration through Whatman GF/B filters, pre-soaked with 0.3% polyethylamine. The filters were washed with 5 ml of ice-cold binding buffer and transferred to scintillation tubes. Radioactivity was counted on a Beckman LS6000 liquid scintillation counter and data were analyzed by non-linear regression using Prism software (GraphPad).

The target in series [2] is T2, AT2R-Y189N (Homo sapiens, UniProt P50052, Y189N).
T2 construct: expressed in transfected cells; host or cells: HEK293T, transient, crude membranes
T2 sequence (P50052 1-363 Y189N): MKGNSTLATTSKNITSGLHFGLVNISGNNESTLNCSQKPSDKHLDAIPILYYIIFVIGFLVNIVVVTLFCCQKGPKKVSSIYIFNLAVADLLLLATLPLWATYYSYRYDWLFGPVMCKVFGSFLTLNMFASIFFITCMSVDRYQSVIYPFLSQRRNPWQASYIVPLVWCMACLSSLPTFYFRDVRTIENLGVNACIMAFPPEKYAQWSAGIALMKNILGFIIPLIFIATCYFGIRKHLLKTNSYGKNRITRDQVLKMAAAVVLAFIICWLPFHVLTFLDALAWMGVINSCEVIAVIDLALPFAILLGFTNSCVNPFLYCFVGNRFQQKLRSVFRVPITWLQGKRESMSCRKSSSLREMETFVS
As to the kind of experiment: Radioligand binding assays, AT2R mutant. The note with it: competition vs 2 nM [125I]-AII, 2 hours on ice, Cheng and Prusoff. As for the experimental part: (§3) Mutagenesis. AT2R mutants were generated as described elsewhere^44.
as §1, §2

Series [3] has as its target T3, AT2R-F272A (Homo sapiens, UniProt P50052, F272A).
T3 construct: expressed in transfected cells; host or cells: HEK293T, transient, crude membranes
T3 sequence (P50052 1-363 F272A): T2 sequence (P50052 1-363 Y189N) with N189Y, F272A
Description: Radioligand binding assays, AT2R mutant. To be noted: competition vs 2 nM [125I]-AII, 2 hours on ice, Cheng and Prusoff. On the procedure: as §3, §1, §2

Series [4] has as its target T4, AT2R-F272H (Homo sapiens, UniProt P50052, F272H).
T4 construct: expressed in transfected cells; host or cells: HEK293T, transient, crude membranes
T4 sequence (P50052 1-363 F272H): T2 sequence (P50052 1-363 Y189N) with N189Y, F272H
As to the kind of experiment: Radioligand binding assays, AT2R mutant. To be noted: competition vs 2 nM [125I]-AII, 2 hours on ice, Cheng and Prusoff. As for the experimental part: as §3, §1, §2

The target of series [5] is T5, AT2R-Y189A (Homo sapiens, UniProt P50052, Y189A).
T5 construct: expressed in transfected cells; host or cells: HEK293T, transient, crude membranes
T5 sequence (P50052 1-363 Y189A): T2 sequence (P50052 1-363 Y189N) with N189A
Description: Radioligand binding assays, AT2R mutant. The note with it: competition vs 2 nM [125I]-AII, 2 hours on ice, Cheng and Prusoff. As for the experimental part: as §3, §1, §2

In series [6] the test system is AT2R wild type. As to the kind of experiment: Radioligand binding assays (saturation and competition), HEK293T membranes. On the procedure:
as §1, §2

A short description of series [7]: cis/trans isomer population in aqueous solution by NMR. The series is classed as physicochemical. To be noted: cis amide bond at residue 6-Pro7, aqueous solution. An excerpt: Peptide synthesis and sample preparation. The synthesis of the following peptides: AII (D^1-R^2—V^3—Y^4—I^5—H^6—P^7—F^8); [Y]^6-AII (D^1-R^2—V^3—Y^4—I^5—Y^6—P^7—F^8); [4-OPO3H2—F]^6-AII, (D^1-R^2—V^3—Y^4—I^5-(4-OPO3H2—F)^6—P^7—F^8), [F]^6-AII, (D^1-R^2—V^3—Y^4—I^5—F^6—P^7—F^8) and [4-NO2—F]^6-AII, (D^1-R^2—V^3—Y^4—I^5-(4-NO2—F)^6—P^7—F^8) was achieved using Fmoc/tBu methodology. 2-Chlorotrityl chloride resin and N^α-Fmoc (9-fluorenylmethyloxycarbonyl) amino acids were used for the synthesis. Peptide purity was assessed by analytical HPLC (Nucleosil-120 C18, reversed phase, 250×4.0 mm), mass spectrometry (FABMS, ESIMS) and amino acid analysis. The samples were prepared for NMR spectroscopy by dissolving the peptide in 0.01 M KPi buffer (pH=4), containing 0.02 M KCl. 2,2-dimethyl-2-sila-pentane sulfonate (DSS) was added to a concentration of 1 mM as an internal chemical shift reference. Peptide concentration was commonly 4 mM in 90% ^1H2O/10% ^2H2O. Trace amounts of NaN3 were added as a preservative.
Inter-proton distances for AII were derived by measuring cross-peak intensities in the NOESY spectra. Intensities were calibrated to give a set of distance constrains using the NMRVIEW software package. NOEs cross peaks were separated into three distance categories according to their intensity. […]

Series [8] has as its target T6, AT2R (Homo sapiens, UniProt P50052).
T6 sequence (P50052 1-363): T2 sequence (P50052 1-363 Y189N) with N189Y
The note with it: relative to AII; cited from earlier work.

Series [9] relates to AT1aR. The note with it: relative to AII; cited from earlier work.

As for `CC[C@H](C)[C@H](NC(=O)[C@H](Cc1ccc(O)cc1)NC(=O)[C@@H](NC(=O)[C@H](CCCNC(=N)N)NC(=O)[C@@H](N)CC(=O)O)C(C)C)C(=O)N[C@@H](Cc1ccc(OP(=O)(O)O)cc1)C(=O)N1CCC[C@H]1C(=O)N[C@@H](Cc1ccccc1)C(=O)O` [[4-OPO3H2—F]^6-AII, D^1-R^2—V^3—Y^4—I^5-(4-OPO3H2—F)^6—P^7—F^8] (HELM PEPTIDE1{D.R.V.Y.I.[O=C([C@H](Cc1ccc(OP(=O)(O)O)cc1)N[*:1])[*:2]].P.F}$$$$V2.0), the Ki in series [1] was greater than 2.5 µM; in series [2], 0.2 µM; in series [3] it was 0.25 µM; in series [4] it was 0.021 µM; in [5], 0.051 µM.
On to “D^1-R^2—V^3—Y^4—I^5—F^6—P^7—F^8 (DRVYIFPF; Angiotensin-2; UniProt P01019 25-32, looked up, variant H6F) [[F]^6-AII, AII analogue with phenylalanine at position 6]”, for which, in [6] (unpublished data), the “affinity for AT1aR compared with AT2R (in words)” value was “same affinity for both AT1aR and AT2R”; the “lower affinity for AT2R in comparison to [Y]^6-AII” value was “more than 50 times”. Further, the “%cis” value in series [7] is roughly 20%.
With DRVYIYPF [[Y]^6-AII], the Ki in [1] was greater than 2.5 µM; in [2] it was 0.01 µM; in [3] it was 0.016 µM; in series [4], 0.016 µM; in series [5] it was 0.012 µM.
With “Pro7Gly mutation in AII: literature AII analogue with Pro7 replaced by Gly (ref 16) (DRVYIHGF; Angiotensin-2; UniProt P01019 25-32, looked up, variant P7G)”, the “affinity for the AT2R (in words)” value in series [8] is “almost retained its affinity”. In [9], the “lower affinity for AT1aR” value was 150 times.
Take `CC[C@H](C)[C@H](NC(=O)[C@H](Cc1ccc(O)cc1)NC(=O)[C@@H](NC(=O)[C@H](CCCNC(=N)N)NC(=O)[C@@H](N)CC(=O)O)C(C)C)C(=O)N[C@@H](Cc1c[nH]cn1)C(=O)N1CCC[C@H]1C(=O)N[C@@H](Cc1ccccc1)C(=O)O` [[^125I]-AII, reference compound]: binding in [6] (saturation assay, 2 hours on ice) was characterised by a dissociation constant (Kd) of 0.0023 ± 0.0003 µM.
For the compound “D^1-R^2—V^3—Y^4—I^5-(4-NO2—F)^6—P^7—F^8 [[4-NO2—F]^6-AII]”, the “binding / affinity for AT1aR (in words)” value in [1] is “high affinity (nM)”. For the same compound, in series [6] (unpublished data), the “lower affinity for AT2R in comparison to [Y]^6-AII” value was found to be 300 times. Moreover, the “%cis” value in series [7] was roughly 5%.

What is called Ki is the dissociation constant of the complex between target and ligand, obtained from inhibition or displacement. By Kd is commonly meant the free concentration of one partner at which half of the binding sites on the other are occupied at equilibrium, for simple one-to-one binding.
